Experimental data published in paper PMC9867241, “Antioxidant and Cytotoxic Activity of New Polyphenolic Derivatives of Quinazolin-4(3H)-one: Synthesis and In Vitro Activities Evaluation” (Pharmaceutics, 2022).
Values after ≈ are worked out from the molar mass of the structure shown.

Key:
[1] = DPPH˙ radical scavenging assay
Experimental: The stock solutions (1 mg/mL) of the tested compounds and the controls were obtained, by dissolving the substances in dimethyl sulfoxide (DMSO). Using Jasco V-530, an UV-VIS spectrophotometer (Jasco International Co., Ltd., Tokyo, Japan), we performed the colorimetric determinations in low-volume single-use 10 mm width cuvettes.
The assays were performed in triplicate and the results are presented as averages for each assay.
The DPPH˙ radical scavenging assay is based on the transfer of one hydrogen from the analyzed compound to the violet stable free radical DPPH˙ (2,2-diphenyl-1-picrylhydrazyl), as we convert it into a yellow compound. The absorbance of the reagent mixed with samples presented inversely proportional values to the amount of DPPH˙ neutralized. The absorbance of the reagent was measured at λ = 517 nm, according to our previous reports. The assay was made in the presence of various concentrations of samples. The used protocol is based on the report of Brand-Williams et al..

[2] = NO˙ radical scavenging assay (Griess reaction); details: PBS pH 7.4, sodium nitroprusside
Experimental: The scavenging of the NO˙ radical was performed by applying previously reported protocols. The in vitro protocol describes the decomposition of sodium nitroprusside in phosphate buffered saline (PBS) at pH = 7.4. The NO˙ radicals would be involved in a Griess reaction if they were not captured by the tested compounds. This reaction results from the formation of an azo dye, with maximum absorption at 546 nm. This azo dye is formed from sulfanilic acid and naphthyl ethylenediamine dichloride.

[3] = Ferric reducing antioxidant potential (FRAP) assay; parameters: concentration or dose not given beside the values; details: for FRAP, % of Activity of Trolox: relative to Trolox; for FRAP, % of Activity of Ascorbic Acid: relative to ascorbic acid
Experimental: In the ferric reducing antioxidant potential (FRAP) assay, in comparison with a blank sample prepared from DMSO mixed with FRAP reagent, the absorbance of the solutions was measured at λ = 593 nm. The compounds were tested according to a modified method proposed initially by Benzie and Strain [31]. Using Equation (4), we calculated the reducing antioxidant potential of 5a–d and 6a–d as a percentage of the activity of the reference compounds:(4) % of control activity=sample absorbance/reference absorbance×100
Ferrous ions resulting from the reduction of ferric ions in the presence of an antioxidant compound form a blue-colored complex (Fe^2+-TPTZ) at pH = 3.6 with tripyridyltriazine (2,4,6-tris(2-pyridyl)-s-triazine). The intensity of the blue complex formed is proportional to the number of ferrous ions. Compounds 5a, 5c and 5d expressed a good electron donation capacity.

[4] = Cupric reducing antioxidant capacity (CUPRAC) assay; parameters: concentration or dose not given beside the values; details: for CUPRAC, % of Activity of Trolox: relative to Trolox; for CUPRAC, % of Activity of Ascorbic Acid: relative to ascorbic acid
Experimental: The ability to donate electrons was evaluated for the compounds 5a–d and 6a–d, by the CUPRAC (CUPric reducing antioxidant capacity) method. The absorbance was measured against a blank sample, at λ = 450 nm. The assay was performed based on our group’s previous report by the adaptation of the initial report of Alam et al., Özyürek et al. and Apak et al.. With the use of Equation (4), the cupric ion reduction by compounds 5a–d and 6a–d was expressed as a percentage of the reference compound activity.
The Cu^2+ ions are reduced to Cu^+ ions by the electron-donating compounds. The Cu^+ ions are chelated by neocuproine, giving a colored complex with absorbance proportional to the quantity of Cu^+ ions that resulted.

[5] = tested on: A549 (lung adenocarcinoma) cells; experiment: Cytotoxicity, Alamar blue assay, A549 cells; type: cell-based; details: Homo sapiens, 24 h exposure
Source text: (§1) Normal human foreskin (BJ) fibroblasts and two types of cancer cells, namely A549 (lung adenocarcinoma) and LNCaP (prostate carcinoma) purchased from American Type Culture Collection (Manassas, VA, USA), were used in the experiments. Each cell line was maintained in a different culture medium, depending on the metabolic necessities of the cells. BJ cells were maintained in Dulbecco’s modified Eagle’s medium (DMEM) with low glucose. A549 cells were maintained in DMEM with high glucose […], while LNCaP cells were grown in Roswell Park Memorial Institute (RPMI) 1640 medium with high glucose (5 g/L). All media used were supplemented with 10% fetal bovine serum (FBS) and were refreshed every two days. Cells were used in experiments or subcultured when they reached 70–80% confluence.
(§2) In 100 µL in 96-well plates, a number of 30,000 LNCaP cells, 15,000 A549 cells, and 7500 normal (BJ) cells were seeded. Because the cells have different sizes and volumes, the purpose of the different seedings was to achieve a confluency of 70–80% after 24 h. All types of cells were further exposed to the synthesized compounds (5a–d and 6a–d) for 24 h, at a concentration ranging from 12.5 to 100 µg/mL. Post-exposure, the media were removed, and the cells were washed with phosphate buffer saline (PBS). Their viability was evaluated using Alamar blue (AB) assay as previously described. Briefly, the cells were incubated with a 200 µM resazurin solution for 4 h. Using a Synergy 2 multi-mode microplate reader, we measured the fluorescence. The measurement was performed at λexcitation = 530/25 nm; λemission = 590/35 nm. We conducted the experiments using three biological replicates, each one including 6 technical replicates. As negative controls (NC), cells exposed to culture medium containing 0.2% DMSO were used. Compared to the NC (100%), the results were expressed as relative values. We used IC50 values for the potency evaluation, and calculated them for each cell line, using the dose-effect curves obtained by fitting the experimental data with a 4-parameter logistic curve.
(§3) Mean values ± standard deviation (SD) values of at least three biological replicates were used to calculate experimental data. One-way analysis of variance (ANOVA) with a post hoc Holm–Sidak test was used to statistically examine the data. Using SigmaPlot 11.0 software (Systat, Software Inc., Chicago, IL, USA), we performed the graphical display and data analysis. From a statistical point of view, the results were considered different, at values of p < 0.05.

[6] = tested on: LNCaP (prostate carcinoma) cells; experiment: Cytotoxicity, Alamar blue assay, LNCaP cells; type: cell-based; details: Homo sapiens, 24 h exposure
Source text: as §1, §2, §3

[7] = tested on: normal human foreskin fibroblasts (BJ); experiment: Cytotoxicity, Alamar blue assay, BJ cells; type: cell-based; details: for IC50: Homo sapiens, Fibroblast, 24 h exposure, Alamar blue
Source text: as §1, §2, §3

Row | IC50 [1] [µM] | IC50 (DPPH˙ scavenging) [1] [µg/mL] | melting point [°C] | Compound | % of DPPH˙ Scavenging ([1]; 1.25 µg/mL) | % of DPPH˙ Scavenging ([1]; 2.5 µg/mL) | % of DPPH˙ Scavenging ([1]; 3.75 µg/mL) | % of DPPH˙ Scavenging ([1]; 5 µg/mL) | % of DPPH˙ Scavenging ([1]; 7.5 µg/mL) | % of DPPH˙ Scavenging ([1]; 10 µg/mL) | % of DPPH˙ Scavenging ([1]; 12.5 µg/mL) | % of DPPH˙ Scavenging ([1]; 15 µg/mL) | % of NO˙ Scavenged [2] [%] | FRAP, % of Activity of Trolox [3] [%] | FRAP, % of Activity of Ascorbic Acid [3] [%] | CUPRAC, % of Activity of Trolox [4] [%] | CUPRAC, % of Activity of Ascorbic Acid [4] [%] | IC50 [5] [µg/mL] | IC50 [6] [µg/mL] | IC50 [7] [µg/mL] | decrease of cellular viability in BJ cells ([7]; highest concentration tested, 24 h)
1 | 4.46 | 1.85 (≈ 4.46 µM) | 208 | CCn1c(SCC(=O)NN=Cc2ccc(O)c(O)c2O)nc2ccccc2c1=O [Compound 5c, 2-((3-Ethyl-4-oxo-3,4-dihydroquinazolin-2-yl)thio)-N’-(2,3,4-trihydroxybenzylidene)acetohydrazide] | 44.32% | 55.40% | 64.87% | 73.44% | 90.15% | + (+ represents more than 95%) | + (+ represents more than 95%) | + (+ represents more than 95%) | 43.21 | 95.70 | 83.40 | 110.95 | 116.41 | 49.1 | 35.9 | > 100 | approximately 40%
2 | 4.93 | 2.18 (≈ 4.93 µM) | 239 | CCCCn1c(SCC(=O)NN=Cc2ccc(O)c(O)c2O)nc2ccccc2c1=O [Compound 5d, 2-((3-Butyl-4-oxo-3,4-dihydroquinazolin-2-yl)thio)-N’-(2,3,4-trihydroxybenzylidene)acetohydrazide] | 41.12% | 53.03% | 63.53% | 71.70% | 87.99% | + (+ represents more than 95%) | + (+ represents more than 95%) | + (+ represents more than 95%) | 35.14 | 92.71 | 80.80 | 106.43 | 111.66 | 42.1 | 56.8 | > 100 | –

More lines, now with the values behind:

Row | Compound | IC50 [1] [µM] | IC50 (DPPH˙ scavenging) [1] [µg/mL] | melting point [°C] | % of DPPH˙ Scavenging ([1]; 1.25 µg/mL) | % of DPPH˙ Scavenging ([1]; 2.5 µg/mL) | % of DPPH˙ Scavenging ([1]; 3.75 µg/mL) | % of DPPH˙ Scavenging ([1]; 5 µg/mL) | % of DPPH˙ Scavenging ([1]; 7.5 µg/mL) | % of DPPH˙ Scavenging ([1]; 10 µg/mL) | % of DPPH˙ Scavenging ([1]; 12.5 µg/mL) | % of DPPH˙ Scavenging ([1]; 15 µg/mL) | % of NO˙ Scavenged [2] [%] | FRAP, % of Activity of Trolox [3] [%] | FRAP, % of Activity of Ascorbic Acid [3] [%] | CUPRAC, % of Activity of Trolox [4] [%] | CUPRAC, % of Activity of Ascorbic Acid [4] [%] | IC50 [5] [µg/mL] | IC50 [6] [µg/mL] | IC50 [7] [µg/mL] | decrease of cellular viability in BJ cells ([7]; highest concentration tested, 24 h)
3 | O=C(CSc1nc2ccccc2c(=O)n1Cc1ccccc1)NN=Cc1ccc(O)c(O)c1O [Compound 5b, 2-((3-Benzyl-4-oxo-3,4-dihydroquinazolin-2-yl)thio)-N’-(2,3,4-trihydroxybenzylidene)acetohydrazide] | 7.6 | 3.62 (≈ 7.6 µM) | 228 | 37.55% | 45.21% | 51.00% | 56.36% | 69.66% | 81.12% | + (+ represents more than 95%) | + (+ represents more than 95%) | 36.75 | 76.93 | 67.05 | 92.75 | 97.31 | 69.5 | 70 | > 100 | –
4 | C=CCn1c(SCC(=O)NN=C(C)c2ccc(O)cc2O)nc2ccccc2c1=O [Compound 6a, 2-((3-Allyl-4-oxo-3,4-dihydroquinazolin-2-yl)thio)-N’-(1-(2,4-dihydroxyphenyl)ethylidene)acetohydrazide] | > 30 | >15 | 230 | - (- represents less than 5%) | - (- represents less than 5%) | - (- represents less than 5%) | - (- represents less than 5%) | - (- represents less than 5%) | - (- represents less than 5%) | 12.28% | 21.34% | 31.82 | 26.17 | 22.81 | 12.83 | 13.46 | 35.7 | 43.4 | > 100 | –
5 | CC(=NNC(=O)CSc1nc2ccccc2c(=O)n1Cc1ccccc1)c1ccc(O)cc1O [Compound 6b, 2-((3-Benzyl-4-oxo-3,4-dihydroquinazolin-2-yl)thio)-N’-(1-(2,4-dihydroxyphenyl)ethylidene)acetohydrazide] | > 30 | >15 | – | - (- represents less than 5%) | - (- represents less than 5%) | - (- represents less than 5%) | - (- represents less than 5%) | - (- represents less than 5%) | - (- represents less than 5%) | - (- represents less than 5%) | 11.59% | 33.31 | 21.24 | 18.51 | 22.63 | 23.74 | 42.2 | 30.4 | > 100 | –
6 | CCn1c(SCC(=O)NN=C(C)c2ccc(O)cc2O)nc2ccccc2c1=O [Compound 6c, N’-(1-(2,4-dihydroxyphenyl)ethylidene)-2-((3-ethyl-4-oxo-3,4-dihydroquinazolin-2-yl)thio)acetohydrazide] | > 30 | >15 | – | - (- represents less than 5%) | - (- represents less than 5%) | - (- represents less than 5%) | - (- represents less than 5%) | - (- represents less than 5%) | - (- represents less than 5%) | 10.11% | 14.89% | 30.62 | 29.65 | 25.85 | 29.09 | 30.52 | > 100 | > 100 | > 100 | –
